Reference: patent US5709864A, “Cosmetic or pharmaceutical and particularly dermatological, composition containing an extract of tephrosia, particularly Tephrosia purpurea” (priority 1993, dated 1998)

Tested on: adenylate cyclase
Experiment: stimulation of adenylate cyclase activity in purified fibroblast (3T3 F442A) cell membranes, AMPc measured by radioimmunoassay
Format: biochemical, mouse
Conditions: at 0.05 g/l, 37° C., 3T3 F442A fibroblast membranes; basal activity without effector = 100%
Protocol: Cell membranes are initially obtained by culturing to confluence fibroblasts of the 3T3 F442A line commercially available from Flow Laboratories.
These fibroblast cell membranes which constitute an enzyme source, are incubated in a reaction medium in the presence of ATP at 37° C. for a predefined length of time.
The resulting AMPc is measured by radioimmunoassay. Taking the basal activity, i.e. activity without an effector, as being 100%, it is possible to determine the influence of an effector on the enzyme system.
Cell membranes are purified from the fibroblast in culture.
In this context, it should be observed that purification of cell membranes releases numerous enzymes into the assay medium. Two of these enzymes are undesirable in implementing the test. They comprise firstly Na^+, K^+ ATPase which transform ATP into adenosine diphosphate, and secondly phosphodiesterase 3',5'-AMPc which degrades cyclic AMP into AMP. Thus, in order to obtain reliable results from the test, it is essential to inhibit those two enzymes. The first is inhibited by means of ouabain, and the second by means of theophylline.
The reaction medium is thus constituted by:
50 μl of a 5 mM solution of […] (ATP) as substrate;
100 μl of a 20 mM solution of ouabain as an inhibitor of ATPase;
100 μl of a 20 mM solution of theophylline as an inhibitor of phosphodiesterase; and […]

C=C[C@@]1(C)CC(=O)[C@]2(O)[C@@]3(C)[C@@H](O)CCC(C)(C)[C@@H]3[C@H](O)[C@H](OC(C)=O)[C@@]2(C)O1 [forskoline]
% activity (adenylate cyclase; basal activity = 100): 225%
